Earlier results in patent publication US20230013142A1, “IODINE COMPOUNDS FOR TREATING RESPIRATORY PATHOGENS” (priority 2020, published 2023).

Key:
[1] = rats, ingestion, 2-year period
[2] = I2 and I- mixed solutions
a variety of viruses = settings: on the skin
parasite's acid vesicles = settings: biologically active concentrations
neuraminidase = settings: virucidal mechanism of action
viral haemagglutinin = settings: blockade of attachment to host cell receptors

[I-].[K+] [potassium iodide]
concentration with long-term decrease in life span [1]: 100 ppm
concentration with no long-term effects [1]: 10 ppm

II [iodine]
evaporation rate relative to 26 degrees (room temperature) ([2]; at 50 degrees Centigrade): over 10 times
evaporation rate relative to 26 degrees ([2]; at 80 degrees): over 30 times
time for successful use against viruses (a variety of viruses): ≤ 5 min
concentration at which decreased virulence of viruses occurred (influenza viruses; in vitro): 0.005 ppm
concentration for complete inactivation of viruses (influenza viruses; within 1 minute in vitro): 0.1 ppm
air level considered immediately dangerous to life or health (IDLH) (air level): 2 ppm
concentration at which reports of discomfort start (NIOSH) (inhalation): 1.5 ppm
concentration at which work is difficult (inhalation): 1.5-2 ppm
concentration at which short term exposure can be irritating (as low as) (inhalation, short term exposure): 0.1 ppm

CCN(CC)CCCC(C)Nc1ccnc2cc(Cl)ccc12 (centres unmarked) [chloroquine]
time to increase of pH of acid vesicles (parasite's acid vesicles): 3-5 min

povidone iodine (2-Pyrrolidinone, 1-ethenyl-homopolymer) [PVP-I]
effect on neuraminidase (neuraminidase): inhibition
effect on viral haemagglutinin (viral haemagglutinin): inhibits
